Laboratory results reported in the NIST ThermoML archive (doi:10.1021/je034157t).
Numbers after ± are expanded uncertainties.

Conditions: Liquid

| vapor or sublimation pressure (303.04 K) [kPa] | vapor or sublimation pressure (303.05 K) [kPa] | vapor or sublimation pressure (309.28 K) [kPa] | vapor or sublimation pressure (313.11 K) [kPa] | vapor or sublimation pressure (316.36 K) [kPa] | vapor or sublimation pressure (318.1 K) [kPa] | SMILES | vapor or sublimation pressure (295.82 K) [kPa] | vapor or sublimation pressure (303.17 K) [kPa] | vapor or sublimation pressure (305.11 K) [kPa] | vapor or sublimation pressure (313.05 K) [kPa] | vapor or sublimation pressure (318.04 K) [kPa] | vapor or sublimation pressure (323.24 K) [kPa] | vapor or sublimation pressure (327.95 K) [kPa] | vapor or sublimation pressure (293.17 K) [kPa] | vapor or sublimation pressure (302.95 K) [kPa] | vapor or sublimation pressure (309.84 K) [kPa] | vapor or sublimation pressure (313.03 K) [kPa] | vapor or sublimation pressure (319.81 K) [kPa] |
| --- | --- | --- | --- | --- | --- | --- | --- | --- | --- | --- | --- | --- | --- | --- | --- | --- | --- | --- |
| – | – | – | – | – | – | F[C@H]([C@@H](F)C(F)(F)C(F)(F)F)C(F)(F)F (relative stereo) [(R*,R*)-1,1,1,2,2,3,4,5,5,5-decafluoropentane] | 26.69 ± 0.08 | 37.25 ± 0.09 | 40.56 ± 0.09 | 56.54 ± 0.11 | 68.94 ± 0.12 | 84.1 ± 0.13 | 99.96 ± 0.14 | – | – | – | – | – |
| – | – | – | – | – | – | F[C@H]([C@H](F)C(F)(F)F)C(F)(F)C(F)(F)F (relative stereo) [(R*,S*)-1,1,1,2,2,3,4,5,5,5-decafluoropentane] | – | – | – | – | – | – | – | 34.49 ± 0.1 | 52.41 ± 0.11 | 68.93 ± 0.13 | 77.9 ± 0.15 | 99.95 ± 0.17 |
| 26.67 ± 0.08 | 26.68 ± 0.08 | 34.5 ± 0.09 | 40.15 ± 0.09 | 45.51 ± 0.1 | 48.62 ± 0.1 | C1CCOC1 [tetrahydrofuran] | – | – | 29.09 ± 0.08 | – | – | – | – | – | – | – | – | – |
